Experimental findings from ChEMBL document CHEMBL1125842, “Synthesis and anticonvulsant activity of 2-iminohydantoins” (J Med Chem, 1991) are described below.

Activity calls are given as the source filed them. The rule behind the calls is not given here. A value given as a limit tells only on which side of the number the result lay.

One may read the ED50 as the dose at which the effect has come halfway, by size or by number of responders.

For data set [1], the system named is Mus musculus. In words: Anticonvulsant activity was measured from mES test by delivering the drug intraperitoneally after 0.5 hr. In kind it is functional. The note with it: ip.
In data set [2] the test system is Mus musculus. In words: Anticonvulsant activity was measured from scMET test by delivering the drug intraperitoneally after 0.5 hr. In kind it is functional. The note with it: ip.
For data set [3], the system named is Mus musculus. In words: ED50 was evaluated from MES test in mice by delivering intraperitoneally and the value was determined at peak time effect or peak neurologic effect. The note with it: ip. In kind it is functional.
The species entered for data set [4] is Mus musculus. In words: animal or person. The conditions noted are these: ip.
Data set [5] concerns Mus musculus. Briefly: ED50 was evaluated from scMET test in mice by delivering intraperitoneally and the value was determined at peak time effect or peak neurologic effect. It is filed as functional. The conditions noted are these: ip.
A short description of data set [6]: Protective index was determined as ratio of TD50 to ED50(scMET method). It is filed as functional.
Data set [7] can be described thus: Protective index was determined as ratio of TD50 to ED50(MES method). It is filed as functional.
The species entered for data set [8] is Mus musculus.
Description: ED50 was evaluated from scMET test in mice by delivering intraperitoneally and the value was determined at peak time effect or peak neurologic effect; NA-Not active
The species entered for data set [9] is Mus musculus. The source holds these as a separate data set.
In data set [10] the test system is Mus musculus. In words: Anticonvulsant activity was measured from mES test by delivering the drug intraperitoneally after 0.5 hr; NA-Not active. It is filed as functional, organism-based.
Data set [11] can be described thus: Neurotoxicity was determined from the rotarod ataxia test for the compound by the intraperitoneal administration. The conditions noted are these: mouse, in vivo, ip. In kind it is toxicity, organism-based.

As for `NC1=NC(=O)[C@H](Cc2ccccc2)N1C(=O)OCc1ccccc1`, the ED50 in the data set with Mus musculus [1] was 213 mg/kg; in the data set with Mus musculus [2], > 1000 mg/kg.

Take `CCC1(C)CC(=O)NC1=O` (stereo not given) [ETHOSUXIMIDE]: the ED50 is > 1000 mg/kg with Mus musculus [3] and 130 mg/kg in the data set with Mus musculus [5]. The TD50 in the data set listed under Mus musculus [4] stood at 441 mg/kg.

The compound `NC(=O)NC(=O)Cc1ccccc1` [PHENACEMIDE] came in with an ED50 with Mus musculus [3] of 87 mg/kg. The PI came out at 3.6 in data set [6] and 4.8 in [7].

On to `O=C1NC(=O)C(c2ccccc2)(c2ccccc2)N1` [PHENYTOIN], for which the ED50 entry in the data set listed under Mus musculus [8] and in the data set filed under Mus musculus [9] was “inactive” each time. For the same compound, in the data set on Mus musculus [1], the median effective dose (ED50) turned out to be 2.3 mg/kg.

As for `NC1=NC(=O)[C@H](Cc2ccccc2)N1`, the results for the ED50 with Mus musculus [1] and in the data set with Mus musculus [2] were 97.8 mg/kg and > 1000 mg/kg, respectively.

For `O=C1NC(=S)NC1(c1ccccc1)c1ccccc1` [THIOPHENYTOIN], the ED50 result with Mus musculus [10] was “inactive”. In the data set on Mus musculus [2], this compound registered an ED50 of 1340 mg/kg.

The compound `CC(C)C[C@@H]1C(=O)N=C(N)N1C(=O)OCc1ccccc1` registered an ED50 with Mus musculus [2] of 547 mg/kg.

Turning to `NC1=NC(=O)CN1C(=O)OCc1ccccc1`, the ED50 in the data set with Mus musculus [1] came out at 459 mg/kg.

As for `CCC1(c2ccccc2)NC(=O)N(C)C1=O` (stereo not given) [MEPHENYTOIN], the figures for the ED50 in the data set on Mus musculus [3] and in the data set with Mus musculus [5] were 61 mg/kg and 31 mg/kg, respectively.

As for `CC(C)C[C@H]1C(=O)N=C(N)N1C(=O)OCc1ccccc1`, the ED50 in the data set on Mus musculus [3] was 98.6 mg/kg; in the data set with Mus musculus [1], 44.5 mg/kg; in the data set on Mus musculus [2], 92.8 mg/kg; with Mus musculus [5], 141 mg/kg. In data set [11], this compound yielded a TD50 of 350 mg/kg. Moreover, the results for the PI in data set [6] and in data set [7] were 2.5 and 3.5, respectively.

On to `CCC1(c2ccccc2)C(=O)NC(=O)NC1=O` [PHENOBARBITAL], for which the ED50 in the data set on Mus musculus [3] worked out at 21.8 mg/kg; in the data set with Mus musculus [5] it was 13.2 mg/kg. In the data set filed under Mus musculus [4], this compound registered a TD50 of 69 mg/kg.

As to `CC(C)C[C@@H]1N=C(N)NC1=O`, the ED50 in the data set on Mus musculus [2] was > 300 mg/kg.
